Legend:
[1] = tested on: CYP450; conditions: at free concentrations observed in humans; cited from earlier work
[2] = tested on: rabbits; experiment: Lipid lowering in rabbits; format: in vivo, rabbit
[3] = tested on: methionine-choline deficient diet rat model of nonalcoholic steatohepatitis; experiment: Methionine-choline deficient diet rat model of nonalcoholic steatohepatitis; format: in vivo; conditions: repeat oral administration at 1000 mg/kg; by suppressing inflammation and oxidative stress
[4] = tested on: hamsters; experiment: Lipid lowering in hamsters; format: in vivo, hamster
[5] = tested on: central nervous, autonomic nervous, respiratory and cardiovascular systems; experiment: Safety pharmacology studies; format: in vivo; conditions: oral doses up to 3000 mg/kg
[6] = tested on: platelets from rats; experiment: Platelet anti-aggregation, rat platelets; format: cell-based
[7] = tested on: arteries in rabbits; experiment: Elasticity of arteries in rabbits; format: in vivo, rabbit
[8] = Absorption, distribution and metabolites after oral 14C-EPA-E in rats; format: in vivo, rat
Method: (§1) EPADEL is a product containing ethyl all-cis-5,8,11,14,17-eicosapentaenoate (EPA-E), one of the n-3 essential fatty acids. The preclinical absorption, distribution, metabolism and excretion (ADME) characteristics of EPA-E have been determined primarily in rats.
After administration of ^14C-EPA-E into the ligated intestine of rats, the residual radioactivity in the intestine at 24 hours was only 4.6% of the administered dose. Radioactivity transferred to the plasma and lymph was mainly detected in the triglyceride (TG) fraction in the early phase after dosing, while distribution to the free fatty acid (FFA) fraction was slight at all timepoints. […] Orally administered EPA-E was primarily incorporated in adrenal gland lipids as cholesterol esters of the fatty acids eicosapentaenoic acid (EPA), docosapentaenoic acid (DPA) and docosahexaenoic acid (DHA).
After oral administration of ^14C-EPA-E to the rat, EPA, DPA and DHA were detected as metabolites in the total lipid fraction of the plasma and tissues (liver, fat, heart and brain). […] In the total lipid fraction of the liver, the radioactivity originated mainly from EPA, DPA and DHA. Thus, it is considered that EPA, DPA and DHA are the predominant metabolites of ^14C-EPA-E in tissues, as constituent fatty acids of the total lipid fraction.

[9] = tested on: platelets from rabbits; experiment: Platelet anti-aggregation, rabbit platelets; format: cell-based
[10] = tested on: mouse diet-induced hepatic steatosis model; experiment: Mouse diet-induced hepatic steatosis model; format: in vivo; conditions: repeat oral administration at ≧0.1 mg/g
[11] = tested on: subjects with NASH; experiment: Phase II double blind, placebo-controlled clinical trial of EPA-E in subjects with NASH; format: in vivo, human; set-up: Efficacy, proportion of responders (NAS Score ≦3 or improvement of ≧2 across at least 2 of NAS components): dose or concentration left out as unconfirmed
Source text: The non-alcoholic fatty liver disease activity score (NAS) is defined as the unweighted sum of the values for steatosis (ranging from 0-3), lobular inflammation (ranging from 0-3) and ballooning (ranging from 0-2), thereby providing a range of NAS score of from 0 to 8. […] Alternatively, patients can show an improvement in NAS by a value of ≧2 across at least two of the NAS components, together with no worsening in fibrosis. Alternatively, patients can show an improvement in NAS score by ≧3, 4, 5, 6, 7 or 8. This example provides the protocol used for an ongoing phase II clinical trial, double blind, placebo-controlled study to investigate the safety, efficacy, and pharmacokinetic profile of two doses of EPA-E in subjects with NASH. Up to 70 subjects were enrolled into each treatment arm, for a total of 210 subjects to be enrolled. Block randomization using an interactive voice response system (IVRS) was used to assign patients in a 1:1:1 ratio to two active doses and placebo. Patients were stratified at randomization by presence or absence of diabetes. Patients with diabetes comprised no more than 25% of the total number of patients enrolled. […] Subjects were required to have a liver biopsy with proven NASH in the 6 month period prior to screening. The Pharmacokinetic profile for EPA-E was evaluated in a subgroup of subjects in specified sites. Subjects were approached prior to providing informed consent to determine if they will participate in the PK group subset. Approximately 36 subjects participated in the PK subset evaluation (12 from each treatment arm, to include 6 males and 6 females). In order to support the trial, EPA-E capsules and matching placebo capsules were prepared. EPA-E capsule is an oval soft gelatin capsule containing 300 mg of EPA-E as an active ingredient. […] These capsules are unidentifiable as EPA-E capsules or placebo capsules. Subjects were administered orally 3 capsules 3 times daily, immediately after meals. 1. Diagnosis of definite NASH by the central reading pathologists: • Liver biopsy slides will be submitted for evaluation by the central pathologists according to one of the following criteria: • a. Previous liver biopsies must have been obtained within 6 months prior to informed consent and should be judged by the local pathologist as showing NAS ≧4 with a minimum score of 1 each for steatosis and lobular inflammation plus […] ballooning OR at least 1a sinusoidal fibrosis AND a finding of possible or definite steatohepatitis • b. For liver biopsies performed after informed consent is obtained, all slides will be submitted for reading by the central pathologists in conformity with the independent pathology review charter (IPRC)

[12] = tested on: rats; experiment: Lipid lowering in rats; format: in vivo, rat
[13] = tested on: platelets from humans; experiment: Platelet anti-aggregation, human platelets; format: cell-based
[14] = Excretion of radioactivity after single oral administration (rats); format: in vivo, rat
Method: as §1
Consequently, when EPA-E is administered orally to humans, it would appear that it is well absorbed, even though the unchanged ethyl ester form is not detected, and the free form (EPA) is only detected at a very low level, in the blood. Due to this absorption mechanism of essential fatty acids, the administered EPA-E exists as a blood-constituent fatty acid in the total lipids. […] Radioactivity was primarily excreted in expired air (44%) after single oral administration at 30 mg/kg EPA-E with minimal excretion in bile and urine (˜3%) and approximately 20% excreted in feces.
Renal excretion was the elimination route for several minor highly polar metabolites (<0.4%), but EPA-E, EPA, DPA or DHA were not detected in the urine. In feces, EPA-E and EPA, evidently derived from the unabsorbed drug, were detected; however, no DPA or DHA was detected in the feces.

[15] = tested on: galactosamine-induced steatohepatitis mouse model; experiment: Galactosamine-induced steatohepatitis mouse model; format: in vivo; conditions: oral administration at 1000 mg/kg; by suppressing triglyceride accumulation

SMILES: CC/C=C\C/C=C\C/C=C\C/C=C\C/C=C\CCCC(=O)O [EPA, eicosapentaenoic acid]
- Inhibition of CYP450 [1]: unlikely to inhibit

SMILES: CC/C=C\C/C=C\C/C=C\C/C=C\C/C=C\CCCC(=O)OCC [EPA-E, ethyl all-cis-5,8,11,14,17-eicosapentaenoate]
- Lipid lowering [2]: lower lipids
- Fibrosis [3]: inhibited fibrosis
- Lipid lowering [4]: lower lipids
- Effect on central nervous, autonomic nervous, respiratory and cardiovascular systems [5]: no effect
- Effect on platelet aggregation [6]: anti-aggregation effects
- Elasticity of arteries [7]: preserve the elasticity of arteries
- Absorption ([8]; single oral dose of 14C-EPA-E 30-1000 mg/kg, rats, mainly through the lymphatic route): well-absorbed
- Effect on platelet aggregation [9]: anti-aggregation effects
- Fat accumulation [10]: suppressed fat accumulation
- Hepatic SREBP-1c levels [10]: suppressing hepatic SREBP-1c levels
- Serum EPA/AA ratios, patients with sFas≦9.5 ng/mL versus sFas >9.5 ng/mL ([11]; Day 365, FIG. 21 and FIG. 22): higher
- Response rate ([11]; fasting glucose=<125 mg/dL and HbA1c=<6.4, Study arm 1, FIG. 4): higher response to rate
- Efficacy, response rate ([11]; fasting glucose=<125 mg/dL and HbA1c=<6.4, Study arm 2, FIG. 4): equivalent to that of Study arm 1
- Efficacy, NASH response (change of NAS score) ([11]; patients with GGT levels=<33 IU/L, Study arm 1 and 2, FIG. 9): higher efficacy
- Efficacy, preliminary endpoint achievement rate ([11]; patients with GGT levels=<60 IU/L, Study arm 1 and 2, FIG. 8): higher efficacy
- Efficacy, improvement of serum EPA/AA ratio on Day 365 ([11]; patients with GGT ≦33 IU/L, Study arm 2, FIG. 10): higher efficacy
- Efficacy, proportion of responders ([11]; patients with HbA1c=<6.4, Study arm 1, FIG. 2): higher efficacy
- Efficacy, proportion of responders ([11]; patients with HbA1c=<6.4, Study arm 2, FIG. 2): equivalent to that of Study arm 1
- Efficacy, proportion of responders ([11]; patients with NASH risk score equal to or less than 4.0, especially 3.0, 1800 mg EPA-E, TID, FIG. 19): higher efficacy
- Efficacy, proportion of responders ([11]; patients with fasting glucose =<125 mg/dL, Study arm 1, FIG. 3): higher efficacy
- Efficacy, proportion of responders ([11]; patients with fasting glucose =<125 mg/dL, Study arm 2, FIG. 3): equivalent to that of Study arm 1
- Efficacy, proportion of responders ([11]; patients with sFas equal to or less 10.0 ng/mL and/or M30 equal to or less 1500 U/L, 1800 mg EPA-E, TID and 2700 mg EPA-E, TID, FIG. 18): higher efficacy
- Efficacy, proportion of responders ([11]; patients with serum M30 equal to or less 1500 U/L, especially 900 U/L, more especially 500 U/L, 1800 mg EPA-E, TID, FIG. 17): higher efficacy
- Efficacy, proportion of responders ([11]; patients with serum sFas equal to or less 9.5 ng/mL, 1800 mg EPA-E, TID, FIG. 14): higher efficacy
- Efficacy, NASH response (change of NAS score) ([11]; patients with serum sFas equal to or less 9.5 ng/mL, Study arm 1 (1800 mg EPA-E, TID), FIG. 16): higher efficacy
- Efficacy, proportion of responders ([11]; patients with serum sFas equal to or less 10.0 ng/mL, especially 9.5 ng/mL, 1800 mg EPA-E, TID, FIG. 15): higher efficacy
- Efficacy, proportion of responders ([11]; patients without biliary tract disease markers (GGT ≦33 IU/L), Study arm 1 (600 mg TID) and Study arm 2 (900 mg TID), FIG. 7): higher efficacy
- Efficacy, proportion of responders (NAS Score ≦3 or improvement of ≧2 across at least 2 of NAS components) ([11]; patients without diabetes or with mild diabetes compared to diabetic patients, Study arm 1, FIG. 1): higher efficacy
- Efficacy, proportion of responders ([11]; patients without diabetes or with mild diabetes, Study arm 2 (900 mg EPA-E, TID), FIG. 1): equivalent to that of Study arm 1
- Lipid lowering [12]: lower lipids
- Effect on platelet aggregation [13]: anti-aggregation effects
- EPA-E and EPA in feces ([14]; derived from the unabsorbed drug, no DPA or DHA detected): detected
- EPA-E, EPA, DPA or DHA in the urine ([14]; species not given): not detected
- Progression of steatohepatitis [15]: retarded progression of steatohepatitis

SMILES: CC/C=C\C/C=C\C/C=C\C/C=C\C/C=C\CCCC(=O)OCC [^14C-EPA-E]
- Unchanged EPA-E in the plasma or tissues ([8]; after oral administration of 14C-EPA-E to the rat, liver, fat, heart and brain): no unchanged EPA-E was found
- Distribution of radioactivity in body tissues ([8]; rats, relatively high levels in brown fat, adrenal, liver and pancreas): widely distributed
